Test results published in ChEMBL document CHEMBL1133395, “Novel oximes having 5-benzyl-2,4-thiazolidinedione as antihyperglycemic agents: synthesis and structure-activity relationship” (Bioorg Med Chem Lett, 2000).

Legend:
[1] = species on record: Mus musculus; test: Blood glucose lowering activity in hyperglycemic kk mice.; assay type: functional; parameters: concentration or dose not given beside the values
[2] = molecular target: T1, Peroxisome proliferator-activated receptor gamma (Homo sapiens, UniProt P37231)
T1 sequence (P37231 whole entry): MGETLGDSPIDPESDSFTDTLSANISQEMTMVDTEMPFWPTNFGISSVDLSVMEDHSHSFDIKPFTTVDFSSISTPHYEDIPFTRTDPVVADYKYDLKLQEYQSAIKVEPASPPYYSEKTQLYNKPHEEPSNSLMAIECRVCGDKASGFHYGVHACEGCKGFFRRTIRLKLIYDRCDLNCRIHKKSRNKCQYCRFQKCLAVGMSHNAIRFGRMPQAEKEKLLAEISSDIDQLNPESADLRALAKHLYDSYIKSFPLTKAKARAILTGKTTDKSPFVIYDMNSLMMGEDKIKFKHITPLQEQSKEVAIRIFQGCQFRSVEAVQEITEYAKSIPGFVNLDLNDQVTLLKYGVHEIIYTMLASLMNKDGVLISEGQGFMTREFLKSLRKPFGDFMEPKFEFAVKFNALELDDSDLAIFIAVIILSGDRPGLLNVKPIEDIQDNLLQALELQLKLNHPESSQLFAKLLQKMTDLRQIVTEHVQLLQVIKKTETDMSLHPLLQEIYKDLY
Description: Peroxisome proliferator activated receptor gamma agonistic activity in HepG2 cells.

For `CCc1ccc(CCOc2ccc(CC3SC(=O)NC3=O)cc2)nc1.Cl` (stereo not drawn) [PIOGLITAZONE HYDROCHLORIDE], the Change [1] was 42%.
In the case of `C/C(=N\OCCOc1ccc(CC2SC(=O)NC2=O)cc1)c1cccnc1` (stereo not drawn), the EC50 [2] is reported as 2800 nM and the Change [1] is reported as 43%.
`C/C(=N\OCCCOc1ccc(CC2SC(=O)NC2=O)cc1)c1ccc(-c2ccccc2)cc1` (stereo not drawn) showed an EC50 [2] of over 100000 nM and a Change [1] of 20%.
With `C/C(=N\OCCOc1ccc(CC2SC(=O)NC2=O)cc1)c1cccc(-c2ccccc2)c1` (stereo not drawn) the EC50 [2] was 330 nM and the Change [1] was 42%.
`C/C(=N\OCCOc1ccc(CC2SC(=O)NC2=O)cc1)c1ccccn1` (stereo not drawn) was tested, and the EC50 [2] was 2800 nM and the Change [1] was 67%.
`C/C(=N\OCCOc1ccc(CC2SC(=O)NC2=O)cc1)c1ccncc1` (stereo not drawn) gave an EC50 [2] of 7900 nM and a Change [1] of 48%.
With `C/C(=N\OCCOc1ccc(CC2SC(=O)NC2=O)cc1)c1ccc(-c2ccccc2)cn1` (stereo not drawn) the EC50 [2] was 1100 nM and the Change [1] was 61%.
Molecule `O=C1NC(=O)C(Cc2ccc(OCCO/N=C/c3ccc(-c4ccccc4)cc3)cc2)S1` (stereo not drawn) has an EC50 [2] of over 100000 nM and a Change [1] of 7%.
`C/C(=N\OCCOc1ccc(CC2SC(=O)NC2=O)cc1)c1ccc(-c2ccccc2)cc1` (stereo not drawn) gave an EC50 [2] of 400 nM and a Change [1] of 67%.
`C/C(=N\OCCOc1ccc(CC2SC(=O)NC2=O)cc1)c1ccc(-c2ccncc2)cc1` (stereo not drawn) gave an EC50 [2] of 1600 nM and a Change [1] of 44%.
`C/C(=N\OCCOc1ccc(CC2SC(=O)NC2=O)cc1)c1ccccc1` (stereo not drawn) showed an EC50 [2] of 1700 nM and a Change [1] of 57%.
With `C/C(=N\OCCOc1ccc(CC2SC(=O)NC2=O)cc1)c1ccc(-c2ccccn2)cc1` (stereo not drawn) the EC50 [2] was 640 nM and the Change [1] was 58%.
`CC/C(=N\OCCOc1ccc(CC2SC(=O)NC2=O)cc1)c1ccc(-c2ccccc2)cc1` (stereo not drawn) was tested, and the EC50 [2] was 1600 nM and the Change [1] was 67%.
In the case of `C/C(=N\OCCOc1ccc(CC2SC(=O)NC2=O)cc1)c1ccccc1-c1ccccc1` (stereo not drawn), the EC50 [2] is reported as over 100000 nM and the Change [1] is reported as 23%.
`C/C(=N\OCCOc1ccc(CC2SC(=O)NC2=O)cc1)c1ccc(-c2ccccc2)nc1` (stereo not drawn) gave a Change [1] of 58%.
For `CN(CCOc1ccc(CC2SC(=O)NC2=O)cc1)c1ccccn1.O=C(O)/C=C\C(=O)O` (stereo not drawn) [ROSIGLITAZONE MALEATE], the Change [1] was 66%.
In the case of `CCC/C(=N\OCCOc1ccc(CC2SC(=O)NC2=O)cc1)c1ccc(-c2ccccc2)cc1` (stereo not drawn), the EC50 [2] is reported as over 100000 nM and the Change [1] is reported as 29%.
For `C/C(=N\OCCOc1ccc(CC2SC(=O)NC2=O)cc1)c1ccc(-c2cccnc2)cc1` (stereo not drawn), the EC50 [2] was 800 nM and the Change [1] was 42%.
